Assay results: patent US20200085853A1, “TARGETING NR3B1 FOR TREATMENT OF NASH” (University of Southern California, priority 2018, published 2020)

How the values were obtained:
[1] = test system: oxygen consumption rate (OCR); assay: Seahorse XF24 metabolic flux analysis (oxygen consumption rate); type: cell-based
Method: Cells were cultured on XF24 plates during experiment. The mitochondrial inhibitors, oligomycin (1 μM), FCCP (0.1 μM) and Rotenone (1 μM) were added after four measurements of basal OCR as described previously.^14 • RNA Isolation, Reverse Transcription and Quantitative PCR

[2] = test system: RXR; assay: RXR agonist treatment, expression of lipogenic and triglyceride biosynthetic genes; type: cell-based; details: FIG. 6A
Source text: To address how NR3B may inhibit the lipogenic and triglyceride synthesis process, the RNA-seq data for SREBP and Chrebp, two transcriptional factors directly involved in the biosynthesis of lipid was explored. […] RXR binds to both PPARg and LXR and has the potential to regulate lipid metabolism through its interaction with these two nuclear receptors. It was explored whether RXR activation alters the expression of the lipogenic and triglyceride biosynthetic genes.

C=C(c1ccc(C(=O)O)cc1)c1cc2c(cc1C)C(C)(C)CCC2(C)C [Bexarotene]
effect on the NR3B-PA induced change of OCR ([1]; co-treatment with NR3B-PA, FIG. 6B): did not block
expression of AGPAT3 [2]: induction
expression of DGAT2 [2]: induction
expression of Fasn [2]: induction

COc1cc(/C=C(\C#N)C(=O)Nc2nnc(C(F)(F)F)s2)ccc1OCc1ccc(C(F)(F)F)cc1C(F)(F)F [XCT 790]
basal oxygen consumption rate (OCR) ([1]; 0.1 μM, FIG. 2A): similar
maximal oxygen consumption rate (OCR) ([1]; 0.1 μM, FIG. 2A): similar
